# Results: the METLIN SMRT retention time set (Domingo-Almenara et al. 2019)
# Experiment: gradient 5% acetonitrile 3 min, to 50% in 2 min, to 85% in 15 min, held 3 min, 100 µL/min
# Settings: column: Zorbax Extend-C18 2.1 x 50 mm; eluents: water / acetonitrile, 0.1% formic acid
# Summary of the method: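 The system's dead and dwell volumes were 40 μL and 900 μL, with a Zorbax Extend-C18 column (2.1 × 50 mm, 1.8 μm) run at 100 μL/min in water and acetonitrile containing 0.1% formic acid each. Pure standards were analyzed in mixtures of ~100 molecules by HPLC–quadrupole time-of-flight mass spectrometry in positive and negative ionization mode. Retention time was assigned from computationally picked, manually inspected adduct peaks.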
compound,measurement,value
Cc1[nH]c(C(=O)N2CCN(c3cccc(Cl)c3)CC2)c(C)c1S(=O)(=O)N1CCC(C)CC1,RP-LC retention time,1090 s
Brc1ccc(OCc2nc3c4ccccc4ncn3n2)cc1,RP-LC retention time,981 s
CCc1noc(-c2ccc(-n3cnc(C(=O)NC4CCCC4)c3)nc2)n1,RP-LC retention time,865 s
CCN(CCNC(=O)C1CCCN(c2ncnc3c2nc2n3CCCCC2)C1)Cc1ccccc1 (stereo not given),RP-LC retention time,639 s
CC(C)(C)NC(=O)N1[C@H]2CC[C@@H]1c1cnc(-c3ccccc3)nc1C2,RP-LC retention time,865 s
CCN(CC)S(=O)(=O)c1c(C)[nH]c(=O)[nH]c1=O,RP-LC retention time,578 s
COC(=O)C(Cc1c[nH]c2ccccc12)NC(=O)c1ccc(Br)cc1 (stereo not given),RP-LC retention time,931 s
Cc1ccc(NC(=O)c2nc3nc(C)cc(C(F)F)n3n2)c(C)c1,RP-LC retention time,854 s
CSc1ccc(CNC(=O)c2[nH]c3cc(C)sc3c2CN2CCOCC2)cc1,RP-LC retention time,709 s
COCCNc1c(-c2ccc(F)cc2)nc2sc(C(=O)N(C)C)c(C)n12,RP-LC retention time,702 s
Cc1nn(-c2ccc(N3CCCCC3)nn2)c(C)c1CCC(=O)N1CCN(c2ncccn2)CC1,RP-LC retention time,656 s
CCSC(=O)N1c2ccc(OC)cc2C=CC1C#N (stereo not given),RP-LC retention time,911 s
Fc1cccc(-c2noc(-c3ccc(N4CCN(c5ncccn5)CC4)nc3)n2)c1,RP-LC retention time,1230 s
COc1ccc(-c2cc(C(=O)Nc3ccc4c(c3)CCC(=O)N4)c3ccccc3n2)cc1,RP-LC retention time,822 s
O=C(c1ccccc1)N1CCN(S(=O)(=O)c2cc3c4c(c2)CCC(=O)N4CCC3)CC1,RP-LC retention time,789 s
Cc1ccc(CNC(=O)c2cn3ccncc3n2)cc1,RP-LC retention time,686 s
Cc1c(Cl)cccc1NC(=O)NC1CCN(c2ccc(F)cc2)C1=O (stereo not given),RP-LC retention time,864 s
COc1ccc(-c2cc(C(=O)N3CCOCC3)nn2C2CCS(=O)(=O)C2)cc1 (stereo not given),RP-LC retention time,704 s
Cc1nnc(-c2cccc(Cl)c2)nc1N1CCC(C)CC1,RP-LC retention time,986 s
Cc1cc(NC(=O)N2CCCC(C)(C(=O)NCc3ccccc3C)C2)ccc1Br (stereo not given),RP-LC retention time,1100 s
Cc1ccccc1NC(=O)CSc1ccc(N2CCCC(C(=O)NC3CC3)C2)nn1 (stereo not given),RP-LC retention time,637 s
CCN(CC)c1nc(NC)nc(-n2cnc(SC)n2)n1,RP-LC retention time,897 s
Cc1ccc(Nc2c(-c3cccc(Br)c3)nc3ccc(C)cn23)cc1,RP-LC retention time,830 s
Nc1nc(N2CCOCC2)ncc1C(=O)Nc1ccccc1,RP-LC retention time,611 s
Cc1noc(C2CN(C(=O)c3cc4ccccc4[nH]3)C2)n1,RP-LC retention time,675 s
CC(C)CNC(=O)CN1CCN(Cc2ccc(F)cc2Cl)C1=O,RP-LC retention time,790 s
O=C(NCCCn1cccn1)c1cccc2[nH]cc(CN3CCSCC3)c12,RP-LC retention time,628 s
COc1cc(NC(=O)Cn2c(=O)n(-c3ccc(F)cc3)c(=O)c3c2cc(C)n3C)cc(OC)c1,RP-LC retention time,798 s
O=C(c1csc(-c2ccc(N3CCCC3)nc2)n1)N1CCCC1,RP-LC retention time,596 s
Cc1ccc(-n2ncc3c(=O)n(Cc4nc(-c5ccccc5)no4)cnc32)cc1,RP-LC retention time,1080 s
Cc1nn(C)c(=O)c2cc(S(=O)(=O)NCc3ccccc3)cn12,RP-LC retention time,776 s
O=C(c1cc2cc(Cl)ccc2[nH]1)N1CCOCC1,RP-LC retention time,860 s
COCc1cc(=O)n(Cc2cccc(OC)c2)c(N2CCCC2)n1,RP-LC retention time,764 s
CC(C)Oc1cccc(NC(=O)C2CCN(S(C)(=O)=O)c3cc(Cl)ccc3O2)c1 (stereo not given),RP-LC retention time,998 s
Cc1ccc(S(=O)(=O)C(F)(F)F)cc1N1C(=O)c2ccccc2C1=O,RP-LC retention time,942 s
O=C(Cn1c(=O)c2cccn2c2ccc(F)cc21)NCCC1=CCCCC1,RP-LC retention time,952 s
CC1CCCCC1Nc1nc(-c2ccc([N+](=O)[O-])cc2)nc2ccccc12 (stereo not given),RP-LC retention time,950 s
CCOc1cc(=O)n2c(c1C(=O)Nc1cc(OC)c(Cl)cc1OC)CCCC2,RP-LC retention time,763 s
COCCn1cc(C(=O)Nc2cccc(Cl)c2)c2nn(-c3ccccc3)c(=O)c-2c1,RP-LC retention time,1050 s
Cc1cccn2cc(-c3cccc(S(=O)(=O)N(C)C)c3)nc12,RP-LC retention time,620 s
COc1ccc(-c2cc(C(=O)N3CCN(S(=O)(=O)c4ccc(C(C)(C)C)cc4)CC3)[nH]n2)cc1,RP-LC retention time,1030 s
O=C(Cn1cccc1-c1nnc(-c2ccccc2)o1)NCc1cccs1,RP-LC retention time,854 s
COc1cc(C(=O)N2CCCN(c3cc(-c4ccc(Br)cc4)[nH]n3)CC2)cc(OC)c1OC,RP-LC retention time,768 s
CC(C)Oc1ccc(-c2noc(Cn3c(=O)n(-c4ccccc4)c(=O)c4sccc43)n2)cc1,RP-LC retention time,1100 s
COc1ccccc1N1CCN(S(=O)(=O)c2cc(-c3nc(C(C)C)cs3)sc2C)CC1,RP-LC retention time,1410 s
O=C(C1CC(=O)N(c2ccc(F)cc2)C1)N1CCC(c2c[nH]c3ccccc23)CC1 (stereo not given),RP-LC retention time,810 s
CCn1c(=O)sc2cc(S(=O)(=O)N3CCC(C(=O)NC(C)C)CC3)ccc21,RP-LC retention time,749 s
Cc1nn(-c2ccccc2)c(C)c1S(=O)(=O)N1CCC(C(=O)Nc2ccc(F)cc2)CC1,RP-LC retention time,948 s
Cc1noc(-c2cccc(OC3CN(C(=O)c4ccco4)C3)c2)n1,RP-LC retention time,789 s
COc1ccc(NC(=O)CSc2nc(N3CCCCC3)nc3ccccc23)cc1,RP-LC retention time,695 s
O=C(c1ccc2ccnc(N3CCN(c4ccc(Cl)cc4)CC3)c2c1)N1CCCCC1,RP-LC retention time,894 s
O=C(NCCc1csc(-c2ccccc2)n1)C1CCN(C(=O)Cc2cccs2)CC1,RP-LC retention time,794 s
Cc1cc2c(c(=O)n(-c3ccc(F)cc3)c(=O)n2CC(=O)Nc2ccc(C(F)(F)F)cc2)n1C,RP-LC retention time,942 s
Cc1cc(C(F)F)n2nc(C(=O)Nc3ccc(Br)cc3)nc2n1,RP-LC retention time,891 s
O=C(c1ccco1)N1CCc2c([nH]c3ccccc23)C1c1ccc(Cl)cc1 (stereo not given),RP-LC retention time,1170 s
O=C(c1ccc(-c2cccs2)nc1)N1CCCCCC1,RP-LC retention time,878 s
CCOc1cc(=O)n2c(c1C(=O)Nc1cc(F)cc(F)c1)CCCC2,RP-LC retention time,794 s
CC(NC(=O)C1CCN(c2cc(N3CCCC3)ncn2)CC1)c1ccccc1 (stereo not given),RP-LC retention time,644 s
COc1cc(OC)c(OC)cc1CN1CC[C@]2(CO)CN(Cc3ccccc3)C[C@@H]2C1,RP-LC retention time,597 s
Cc1cc(C)nc(-n2nc(C)c3c2N(C)C(=O)CC3c2ccccc2Cl)n1 (stereo not given),RP-LC retention time,810 s
CCC(=O)Nc1ccc2c(c1)CCC(=O)N2CCOC,RP-LC retention time,618 s
COc1ccccc1OCCC1CCN(S(=O)(=O)Cc2ccccc2)C1 (stereo not given),RP-LC retention time,692 s
O=C(NCc1cccnc1)c1cc(N2CCCC2)n2nccc2n1,RP-LC retention time,534 s
Cc1cc(S(=O)(=O)NCC(c2cccs2)S(=O)(=O)c2ccccc2)ccc1F (stereo not given),RP-LC retention time,906 s
COc1ccc(-c2nnc(Cc3nc(-c4cccc(Cl)c4)no3)o2)cc1OC,RP-LC retention time,995 s
COc1ccccc1N1CCN(CCN2C(=O)CC3(CCCC3)CC2=O)CC1,RP-LC retention time,733 s
O=C(c1cc2ccccc2[nH]1)N1CCN(c2ccc(=O)n(-c3cccc(Cl)c3)n2)CC1,RP-LC retention time,926 s
Cc1cc(OCC(=O)NCCN(C)C)cc(C)c1Cl,RP-LC retention time,629 s
Cc1nc(-c2ccc(-c3noc(Cc4c[nH]c5ccccc45)n3)cc2)cs1,RP-LC retention time,1090 s
CCOC(=O)C1=C(C)NC2=C(C(=O)C(C(=O)OC)C(C)C2)C1c1ccc(F)cc1 (stereo not given),RP-LC retention time,870 s
COC(=O)C1=C(CN2CCOCC2)NC(=O)NC1c1ccccc1C (stereo not given),RP-LC retention time,590 s
COc1ccc(-c2nnc(-c3cc(S(=O)(=O)NC(C)C)ccc3Cl)o2)cc1,RP-LC retention time,967 s
COc1cc(C(=O)N2CCC3(CC2)NC(=O)c2ccc(Cl)cc2N3)cc(OC)c1OC,RP-LC retention time,721 s
CCn1ccc(C(=O)NC2CCCN(c3cc(N(C)C)ncn3)C2)n1 (stereo not given),RP-LC retention time,590 s
COc1ccc(Cl)cc1NC(=O)Cn1cccc1-c1nnc(C2CC2)o1,RP-LC retention time,972 s
O=C1NCCCCCN(C(=O)c2ccc(Cn3cncn3)o2)[C@H]2CCC[C@@H]12,RP-LC retention time,608 s
Cc1nc2c(nc1C)C(=O)c1ccccc1C2=O,RP-LC retention time,655 s
CCc1noc(-c2ccc(-n3cnc(C(=O)NCC(C)C)c3)nc2)n1,RP-LC retention time,814 s
CSc1ccc(-c2nc3cnccn3c2Nc2c(C)cccc2C)cc1,RP-LC retention time,966 s
COC[C@@H]1CN(S(=O)(=O)C(C)C)C[C@H]1c1ccccn1,RP-LC retention time,619 s
CCOc1ccc(N2C=C(C(=O)N3CCOCC3)S(=O)(=O)c3ccc(F)cc32)cc1,RP-LC retention time,845 s
Cc1noc(-c2nc(-c3cccc(Cl)c3)no2)n1,RP-LC retention time,1070 s
CC(C)c1c(C2CCN(C(=O)c3cc4ccccc4[nH]3)CC2)noc1N,RP-LC retention time,824 s
O=c1n(Cc2cccc(F)c2)nc2ccc(S(=O)(=O)N3CCc4ccccc4C3)cn12,RP-LC retention time,987 s
COc1cccc(S(=O)(=O)N2CCC3(CC2)c2nccn2CCN3C)c1,RP-LC retention time,607 s
O=C(c1cc(-c2cccnc2)n[nH]1)N1CCN(C(=O)C2CC2)CC1,RP-LC retention time,565 s
COc1cc(-c2noc(Cc3nnc(-c4cc(C)cc(C)c4)o3)n2)cc(OC)c1OC,RP-LC retention time,1050 s
O=C(NC1CCCC1)C1CCCN(C(=O)c2cc(-c3ccccn3)n[nH]2)C1 (stereo not given),RP-LC retention time,616 s
Cc1nn(-c2ccc(N3CCCC3)nn2)c(C)c1CCC(=O)N1CCCC1,RP-LC retention time,599 s
Cc1ccc(N2CCN(C(=O)C3CCCN(c4cnc5nccnc5c4)C3)CC2)cc1 (stereo not given),RP-LC retention time,754 s
